Experiments:
ectopic bone formation = test: Genetic mouse model of FOP, pinch injury-induced ectopic bone formation, micro-CT; assay type: in vivo, Acvr1^(cR206H/+);Pdgfra-Cre+ mice; details: for Mean ectopic bone volume D14 (mm^3) / Mean ectopic bone volume D14 [percent change from vehicle]: day 14; for Mean ectopic bone volume D22 (mm^3) / Mean ectopic bone volume D22 [percent change from vehicle]: day 22
From the text: Acvr1^(cR206H/+) mice were obtained from the International Fibrodysplasia Ossificans Progressiva Association (IFOPA, North Kansas City, MO, USA). These animals harbour a Cre recombinase-inducible Acvr1 transgenic allele, which causes a switch from wild-type mouse ACVR1 protein expression to that of a chimeric mouse/human protein containing the R206H mutation seen in >95% of FOP patients. These animals were intercrossed with Pdgfra-Cre expressing mice (C57BL/6-Tg(PDGFRA-cre)1Clc/J mice, available through The Jackson Laboratory, Bar Harbor, ME, USA) which activates Cre recombination in fibro-adipogenic precursors, currently believed to be the cells of origin for FOP (Lees-Shepard, J.B., et al (2018) Nat Commun 9, 471.). Resulting study animals (ACVR1^(R206H/+);Pdgfra-Cre+) are susceptible to injury-induced ectopic bone formation. These animals were subjected to a bilateral gastrocnemius pinch procedure under anaesthesia, whereby a Halsted-mosquito hemostat (product#13008-12, Fine Science Tools Inc., North Vancouver, BC, Canada) is used to compress the gastrocnemius muscle, at its widest part, to approximately 2mm for 5s, and then released. This injury elicits robust ectopic bone formation within 10-14 days (for description of procedure see, Lyu, H., et al. (2021). Biomedicines 9(6).). […] Micro-CT imaging was performed on days 14 (under anaesthesia) and at study termination (day 22), as outlined above in Example 7. Sites of ectopic bone formation in the area of the injury were volumetrically quantified using Class stratification in Imalytics Preclinical software (version 3.0.2.3, Gremse-IT GmbH, Aachen, Germany) from DICOM renderings. Using this model, the utility of compound 1 in inhibiting bone formation in a genetic mouse model of FOP was illustrated (see Figure 11 and Table 3 below). Table 3. Effect of different doses of compound 1 on mean ectopic bone volume at 14 and 22 days following initiation of treatment

CYP26B1 = molecular target: T1, CYP26B1 (Homo sapiens, UniProt Q9NR63); test: U2OS cell-based inhibitor assay (endogenous CYP26B1); set-up: This assay used a human cell type endogenously expressing the CYP26B1 enzyme; endogenous in cells; host or cells: U2OS, pre-treated with 1 µM RA for 24 hours; details: U2OS cells pre-treated with 1 µM RA for 24 hours; Figure 4
T1 sequence (Q9NR63 1-512): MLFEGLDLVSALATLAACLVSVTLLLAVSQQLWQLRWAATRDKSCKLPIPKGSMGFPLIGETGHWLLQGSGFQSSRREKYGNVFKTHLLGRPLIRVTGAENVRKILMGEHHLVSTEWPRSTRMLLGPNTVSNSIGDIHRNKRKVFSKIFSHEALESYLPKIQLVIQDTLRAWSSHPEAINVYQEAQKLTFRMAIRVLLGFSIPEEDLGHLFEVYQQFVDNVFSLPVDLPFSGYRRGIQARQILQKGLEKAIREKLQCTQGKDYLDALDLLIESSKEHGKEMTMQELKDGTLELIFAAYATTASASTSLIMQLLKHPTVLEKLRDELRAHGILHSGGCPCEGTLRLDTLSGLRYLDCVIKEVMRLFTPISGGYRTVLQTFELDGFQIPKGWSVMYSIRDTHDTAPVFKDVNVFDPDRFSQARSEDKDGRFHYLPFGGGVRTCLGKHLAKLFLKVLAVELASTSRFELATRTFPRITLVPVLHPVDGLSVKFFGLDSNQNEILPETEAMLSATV
Method: This assay used a human cell type endogenously expressing the CYP26B1 enzyme to test the ability of a compound to block RA metabolism. U2OS cells were grown in McCoy's 5A medium containing 10% fetal bovine serum (FBS) and 1X antibiotic/antimycotic cocktail. Cells grown in a T-175 culture flask at […] were treated with 1 µM RA for 24 hours to induce the expression of the CYP26B1 gene prior to the assay. Following this treatment period, cells were collected by trypsinization, washed twice in PBS, and resuspended in 7 ml of fresh culture medium. These cells were then re-plated in 48-well plates, and the assay was carried out as described for the HeLa-cell based assay.

[1] = Mapping a therapeutic window (ED50 versus MTD); assay type: in vivo
From the text: For both palovarotene and compound 1 efficacy and toxicity were correlated to the pharmacokinetic parameters AUC (area under the curve), Cmax (maximum concentration detected following compound administration), and duration above EC50/IC50.This illustrated that efficacy was best predicted by duration above the EC50/IC50 (effective concentration for 50% response (in the case of palovarotene), or for 50% inhibition (in the case of compound 1)), whereas toxicity was best predicted by Cmax. […] For palovarotene, efficacy data from Example 7 and toxicity data from Example 8 above were compiled with mined data from the following publications: • Lindborg et al (2018). "Cartilage-derived retinoic acid-sensitive protein (CD-RAP): A stage-specific biomarker of heterotopic endochondral ossification (HEO) in fibrodysplasia ossificans progressiva (FOP)." Bone 109: 153-157. • Chakkalakal, S. A., et al. (2016). "Palovarotene Inhibits Heterotopic Ossification and Maintains Limb Mobility and Growth in Mice With the Human ACVR1(R206H) Fibrodysplasia Ossificans Progressiva (FOP) Mutation." J Bone Miner Res 31(9): 1666-1675. • Inubushi, T., et al. (2018). "Palovarotene Inhibits Osteochondroma Formation in a Mouse Model of Multiple Hereditary Exostoses." J Bone Miner Res 33(4): 658-666. • Lees-Shepard, J. B., et al. (2018). […] "Potent inhibition of heterotopic ossification by nuclear retinoic acid receptor-gamma agonists." Nat Med 17(4): 454-460.

CC(C)(C)c1cccc(-c2cc3cc(/C=C/C(=O)O)ccc3[nH]2)c1 [Compound 1, (E)-3-(2-(3-(tert-butyl)phenyl)-1H-indol-5-yl)acrylic acid]
Mean ectopic bone volume D14 (mm^3) (ectopic bone formation; 2mg/kg BID): 2.92 ± 3.76 mm^3
Mean ectopic bone volume D14 [percent change from vehicle] (ectopic bone formation; 2mg/kg BID): -76.9%
Mean ectopic bone volume D22 (mm^3) (ectopic bone formation; 2mg/kg BID): 2.62 ± 4.36 mm^3
Mean ectopic bone volume D22 [percent change from vehicle] (ectopic bone formation; 2mg/kg BID): -77.9%
Mean ectopic bone volume D14 (mm^3) (ectopic bone formation; 4mg/kg BID): 0.20 ± 0.47 mm^3
Mean ectopic bone volume D14 [percent change from vehicle] (ectopic bone formation; 4mg/kg BID): -98.5%
Mean ectopic bone volume D22 (mm^3) (ectopic bone formation; 4mg/kg BID): 0.00 ± 0.00 mm^3
Mean ectopic bone volume D22 [percent change from vehicle] (ectopic bone formation; 4mg/kg BID): -100%
Mean ectopic bone volume D14 (mm^3) (ectopic bone formation; 7.5mg/kg BID): 0.31 ± 0.45 mm^3
Mean ectopic bone volume D14 [percent change from vehicle] (ectopic bone formation; 7.5mg/kg BID): -97.5%
Mean ectopic bone volume D22 (mm^3) (ectopic bone formation; 7.5mg/kg BID): 0.07 ± 0.18 mm^3
Mean ectopic bone volume D22 [percent change from vehicle] (ectopic bone formation; 7.5mg/kg BID): -99.4%
Mean ectopic bone volume D14 (mm^3) (ectopic bone formation; 10mg/kg BID): 1.28 ± 2.23 mm^3
Mean ectopic bone volume D14 [percent change from vehicle] (ectopic bone formation; 10mg/kg BID): -89.9%
Mean ectopic bone volume D22 (mm^3) (ectopic bone formation; 10mg/kg BID): 1.40 ± 2.65 mm^3
Mean ectopic bone volume D22 [percent change from vehicle] (ectopic bone formation; 10mg/kg BID): -88.2%
IC50 (CYP26B1): 1.9 nM
ED50 ([1]; Mus musculus, BID, effective dose for 50% reduction in ectopic bone): 4 mg/kg
MTD at 4 weeks ([1]; both sexes, FVB, mouse, in vivo): 10 mg/kg
